Consider two compounds from US20190224222A1, “METHOD OF INHIBITING QUORUM SENSING USING D-GALACTOSE” (Seoul National University R&DB Foundation, priority 2014, published 2019).

In assay [1] the test system is P. gingivalis (Pg) biofilm. Briefly: Pg biofilm formation induced by Fn AI-2, crystal violet staining. Type of assay: cell-based, P. gingivalis (ATCC 33277). The protocol:
To test biofilm formation by Pg, a test was performed in the same manner as in Example 3. That is, a Pg culture broth (2 ml; negative control group, the number of bacteria: 4×10^8/ml), a mixture of Pg culture broth (2 ml) and Fn AI-2 (10% (v/v) with respect to the total volume of the mixture with Pg culture broth), or a mixture of Pg culture broth (2 ml) and Fn AI-2 (10% (v/v) with respect to the total volume of the mixture with Fn culture broth) and D-gal (2 mM) was added to a 24-well plate with a glass slip (round, 12 mm radius), and cultured under anaerobic conditions for 48˜72 hours. For comparison, 2 μM of the furanone compound [(5Z)-4-bromo-5-(bromomethylene)-2(5H)-furanone] was used instead of D-gal (2 mM) to perform the same test.
Biofilms formed on the cover slips were stained with 10% crystal violet [Tris(4-(dimethylamino)phenyl)methylium chloride] for 10 minutes, washed three times with PBS, and destained with 1 ml of acetone-alcohol (20:80, vol/vol). The optical density at 590 nm of the destaining solution containing crystal violet was measured using a microplate reader (a Wallac Victor3 microtiter, PerkinElmer Life Sciences, Waltham, Mass.). The smaller optical density (OD590) measured at 590 nm represents more inhibition of biofilm formation, that is, higher quorum sensing inhibitory effect of the used QSI candidate.

The test system of assay [2] is P. gingivalis (Pg) biofilm. In words: Pg biofilm formation induced by Fn AI-2, fluorescence staining (confocal). Type of assay: cell-based, P. gingivalis (ATCC 33277). To be noted: D-gal 200 mM vs furanone 20 μM. Here is the method:
Further, inhibitory effects of D-gal on Pg biofilm formation induced by Fn AI-2 were examined by fluorescence staining. 2 ml of Pg culture broth (the number of bacteria: 4×10^8/ml) was used, and Fn AI-2 was used in a volume of 10% (v/v) with respect to the total volume of a mixture with Pg culture broth. 200 mM of D-gal was used, and for comparison, the same test was performed using 20 μM of the furanone compound, instead of D-gal. Biofilms formed on the cover slip were stained with fluorescent materials using the live/dead-BacLight viability kit (Invitrogen, Grand Island, N.Y., USA) and observed using a confocal microscope (Carl Zeiss, LSM 700). […] Fluorescence intensities of the obtained individual fluorescence images were quantified using ZEN 2010 program of a confocal microscope, and shown in FIG. 6.

Assay [3] relates to P. gingivalis (Pg) biofilm. In words: Pg biofilm formation induced by Fn secretory material, transwell, crystal violet. Type of assay: cell-based. As to conditions: for OD590 nm: Fn upper / Pg lower chamber, sugar 2 mM, 48-72 h, Fn/Pg control 0.57, Pg alone 0.30. The protocol:
(§1) In order to examine efficacies of quorum sensing inhibitor (QSI) candidates on biofilm formation of periodontopathogenic bacteria which is induced by a secretory material of F. nucleatum (Fn), a test was performed using a transwell system. AI-2 naturally secreted by Fn is contained in the secretory material of Fn. Therefore, in the test using the transwell system, Fn AI-2 was not directly added to bacteria, but Fn was put in an upper chamber and Pg or Tf was put in a lower chamber. Biofilms cultured and formed in the presence or absence of QSI candidates were stained with crystal violet, followed by analysis. These conditions are to evaluate whether Pg or Tf biofilm formation is influenced by not a purified AI-2 but an AI-2-containing secretory material naturally secreted by Fn, and whether QSI candidates such as D-gal is able to inhibit the biofilm formation if the biofilm is then formed.
(§2) More specifically, the transwell system (24-well) has an upper chamber and a lower chamber which are separated from each other by a membrane of 0.4 μm. 500 μl of F. nucelatum (Fn) culture broth (the number of bacteria: 2×10^7 CFU/ml) was cultured in the upper chamber. A glass slip was placed in the lower chamber, and then the same number of P. gingivalis(Pg) or T. forsythia(Tf) was inoculated in 1 ml of medium and cultured for 48-72 hours. The same QSI candidates were added to the upper and lower chambers. As the QSI candidates, 2 mM of sugar (D-rib or D-gal) was used and 2 μM of the furanone compound [(5Z)-4-bromo-5-(bromomethylene)-2(5H)-furanone] was used. In order to examine whether biofilm formation of the bacteria in the lower chamber is influenced by Fn secretory material and QSI candidates, the biofilms formed on the glass slip were stained with crystal violet, and then quantified (see Examples 3 to 5).

Assay [4] deals with T. forsythia (Tf) biofilm. Briefly: Tf biofilm formation induced by Fn secretory material, transwell, crystal violet. Type of assay: cell-based. To be noted: for OD590: Fn upper / Tf lower chamber, sugar 2 mM, 48-72 h, Fn/Tf control 0.55, Tf alone 0.17. Here is the method:
as §1, §2

The next assay deals with F. nucleatum. In words: Effect on bacterial growth of F. nucleatum (OD 600 nm). Type of assay: cell-based. As to conditions: D-galactose 100 mM, 37° C., anaerobic, 24-48 hours, vs control 0 mM. The protocol: In detail, F. nucleatum was cultured in the presence of 0 mM (control group) and 100 mM of D-galactose at 37° C. under anaerobic conditions for 24-48 hours, and then optical density at 600 nm was determined to measure cell growth.

Another assay deals with S. mutans (Sm) biofilm. Briefly: S. mutans biofilm formation, fluorescence staining (confocal). To be noted: D-gal 200 mM vs furanone compound 20 μM. Type of assay: cell-based, Streptococcus mutans (ATCC 25175). The protocol:
Further, the inhibitory effect of D-gal on Sm biofilm formation was examined by fluorescent staining. 2 ml (2×10^7/ml) of Sm culture broth was used, and 200 mM of D-gal and 20 μM of the furanone compound were used. Biofilms formed on the cover slip were stained with fluorescent materials using the live/dead-BacLight viability kit (Invitrogen, Grand Island, N.Y., USA) and observed using a confocal microscope (Carl Zeiss, LSM 700). […] Fluorescence intensities of the obtained individual fluorescence images were quantified using ZEN 2010 program of a confocal microscope, and shown in FIG. 16.

The subject of another assay is S. oxalis (So) biofilm. In words: S. oxalis biofilm formation, crystal violet staining. Type of assay: cell-based, Streptococcus oxalis (ATCC 9811). As to conditions: for OD590: So on saliva-coated glass slip, sugar 2 mM, So control 0.59. Here is the method:
2 mL (2×10^7/ml) of the culture broth of a representative cariogenic bacterium S. mutans (Sm) and 2 mL (2×10^7/ml) of the culture broth of one of normal oral flora, S. oxalis (SO) were added to a saliva-coated glass slip (round, 12 mm radius), respectively and cultured with 0 mM or 2 mM of D-galactose to form biofilms. […] Further, the biofilms were stained with fluorescent materials using the live/dead-BacLight viability kit (Invitrogen, Grand Island, N.Y., USA), followed by analysis. For comparison, 2 μM of the furanone compound was used instead of D-galactose to perform the same test.

Setting [5] is: D-gal 2 mM compared to D-rib 2 mM.

In the case of `O=C[C@H](O)[C@@H](O)[C@@H](O)[C@H](O)CO` [D-gal, D-galactose], the OD590 nm in assay [1] (Pg + Fn AI-2 10% (v/v), D-gal 2 mM, 48-72 h, Pg/AI-2 control 2.00, Pg 0.66) was determined as 1.24; in assay [3], 0.45. Further, the “inhibitory effect on Pg biofilm formation, in words” value in assay [1] (crystal violet, D-gal 2 mM vs furanone 2 μM) is on record as “equivalent to that of the furanone compound”; in assay [2], “equivalent to that of the furanone compound”. In assay [3] (setting [5]), the “inhibitory effect on Pg biofilm formation induced by Fn secretory material, in words” value was “remarkably excellent inhibitory effect, compared to D-rib”. Further, the “inhibitory effect on Tf biofilm formation induced by Fn secretory material, in words” value in assay [4] (setting [5]) is given as “remarkably excellent inhibitory effect, compared to D-rib”. Moreover, the OD590 in assay [4] amounted to 0.36; in the assay with S. oxalis (So) biofilm it was 1.07. Also, the “effect on bacterial growth (cell growth curve, OD 600 nm), in words” value with F. nucleatum is recorded as “does not affect bacterial growth”. Moreover, the “inhibitory effect on Sm biofilm formation, in words” value in the assay on S. mutans (Sm) biofilm is “superior to that of the furanone compound”. Moreover, in the assay on S. oxalis (So) biofilm (crystal violet, D-gal 2 mM compared to D-rib and the furanone compound), the “effect on So biofilm formation, in words” value is on record as “did not inhibit but increased biofilm formation”.
As for `O=C[C@H](O)[C@H](O)[C@H](O)CO` [D-rib, D-ribose, reference compound], the OD590 nm in assay [3] was 0.58. Further, the OD590 worked out at 0.69 in assay [4] and 0.85 in the assay with S. oxalis (So) biofilm.
